Columns and labels:
KRAS G12C-BRAF complex = KRAS G12C-BRAF complex (Homo sapiens (Human), UniProt P01116+P62937, G12C); test: KRAS-BRAF with CYPA (500 nM) interaction assay (TR-FRET, Example 136); assay type: biochemical; settings: KRAS G12C-BRAF disruption
DUSP6 = test: Brain metastasis intracranial model, PD (DUSP6 in brain, qPCR); assay type: in vivo, mouse; settings: 30 mg/kg once daily for 14 days, 6 hours post last dose, NCI-H1373-Luc model
Description: Example 24, formulated in 10% DMSO, 10% Solutol HS15, 80% water, was dosed orally to 7-9 weeks female BALB/c nude mice (Vital River Co., LTD.) in […] at 30 mg/kg (dosing volume of 10 ml/kg) once daily for 14 days. Terminal tissue and blood harvest was performed at 6 hours after post last dose of test articles, using 4 mice per group. In brief, whole blood was collected into K2-EDTA tubes and subjected to centrifugation to separate plasma. Brains were collected, rinsed, and homogenized. Mice Brain were analyzed using qPCR using DUSP6 and ACTB TaqMan probes (ABI-4369016, ABI-4351370). All the targets mRNA expression levels were normalized to the housekeeping gene, and the data were represented as fold-changes according to the 2-ΔΔCt method, where […] and ΔΔCt=ΔCt treatment-ΔCt reference, ΔCt reference was chosen as the vehicle group. The data were interpreted by GraphPad Prism, and statistical analysis of difference in the each targets mRNA expression among the groups were conducted. For comparison between two groups, an independent sample t-test will be used. For comparison among three or more groups, a one-way ANOVA (Dunnett's multiple comparisons test) will be performed, p<0.05 was considered to be statistically significant.

WT HRAS-BRAF complex = test: WT HRAS-BRAF with CYPA interaction assay (TR-FRET); assay type: biochemical
Description: (§1) In this example, TR-FRET was used to measure the compound or compound-CYPA dependent disruption of the KRAS G12V-BRAF complex to assess inhibition efficacy. The IC50 ratio between WT KRAS/HRAS/NRAS and KRAS G12V mutant was calculated as selective index, which indicated tolerability and safety profile. Disruption of WT KRAS/HRAS/NRAS-BRAF complex by compounds was detected respectively. In assay buffer containing 25 mM HEPES (PH-7.4,4-(2-hydroxyethyl)-1-piperazineethanesulfonic acid, Thermo, 15630080), 0.002% Tween20, 0.1% BSA, 100 mM NaCl, 5 mM MgCl2, 10 μM GMPPNP (Guanosine 5′-[β,γ-imido]triphosphate trisodium salt hydrate, Sigma, G0635), tagless CYPA and GMPPNP loaded 6His-RAS proteins, and GST-BRAF^RBD were mixed in a well of a 384-well assay plate at final concentrations of 50 nM, 6.25 nM and 1 nM, respectively. Compound was present in plate wells as a 16-point 3-fold dilution series starting at a final concentration of 10 μM and incubated for 3 hours. A mixture of MAb Anti-6His-XL665 (Cisbio, 61HISXLB) and Mab anti-GST-TB cryptate (Cisbio, 61GSTTLB) was then added at a final concentration of 6.67 nM and 0.21 nM, respectively, and the plate was incubated for an additional 1.5 hours. TR-FRET signal was read on a PHERstar FSX microplate reader (Ex320 nm, Em 665/615 nm). Compounds that facilitate disruption of the RAS-BRAF complex were identified as those eliciting a decrease in the TR-FRET ratio relative to DMSO control wells.

[1] = system: panel of 119 human cancer cell lines with RAS mutations or amplifications; test: Cell proliferation analysis, panel of 119 human cancer cell lines; assay type: cell-based; settings: RAS addicted cell panels (n=119), read-out: median IC50
Description: The objective of this study was to evaluate the extent and degree to which Example 24 or A122 inhibits cell proliferation in a panel of 119 human cancer cell lines with RAS mutations or amplifications across various histological subtypes.
On Day-1, cells were plated in 384-well round-bottom ultra-low adhesion plates (cat. Corning 3830, with cell density adjusted according to Table 3. The assay plate was then centrifuged at 1000 rpm for 1 minute to ensure even distribution of cells. The plate was incubated at 37° C. in a 5% CO2 atmosphere (It is worth noting that for SW1271 cell plate, it needs to be incubated in an incubator without additional CO2).
On Day 0, Example 24 or A122 was added to each well using a Tecan HP D300E dispenser, with a 3-fold dilution across 9 doses. The final concentration of DMSO was normalized to 0.2%. The assay plate was then centrifuged at 1000 rpm for 1 minute and incubated for 7 days.
On Day 7, CellTiter-Glo (CTG) 3D reagent (Promega G9683) was dispensed into each well of a 384-well plate using a multi-drop dispenser (Thermo Scientific 66413). […]
For data analysis, the XL-fit software (Supplier: ID Business Solutions Ltd., Software version: XL fit 5.0) was utilized. The percentage of inhibition was calculated using the formula: Inhibition %=(Max-Sample value)/(Max-Min)×100. […]

WT NRAS-BRAF complex = WT NRAS-BRAF complex (Homo sapiens (Human), UniProt P01111+P62937); test: WT NRAS-BRAF with CYPA interaction assay (TR-FRET); assay type: biochemical; settings: WT NRAS
Description: as §1

Chain of WT NRAS-BRAF complex (P01111 whole entry, looked up): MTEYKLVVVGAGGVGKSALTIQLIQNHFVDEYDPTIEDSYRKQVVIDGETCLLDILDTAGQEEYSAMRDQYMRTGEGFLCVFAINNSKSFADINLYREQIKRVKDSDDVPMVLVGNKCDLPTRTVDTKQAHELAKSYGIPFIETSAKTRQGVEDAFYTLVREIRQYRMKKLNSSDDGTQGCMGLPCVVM
Chain of WT NRAS-BRAF complex (P62937 whole entry, looked up): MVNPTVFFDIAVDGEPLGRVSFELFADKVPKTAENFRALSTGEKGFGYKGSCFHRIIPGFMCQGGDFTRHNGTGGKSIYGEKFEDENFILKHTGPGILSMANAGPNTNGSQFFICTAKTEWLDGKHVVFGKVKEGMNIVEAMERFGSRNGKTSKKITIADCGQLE
Chain of KRAS G12C-BRAF complex (P01116-2 other isoform, or with tags, fused parts or gaps G12C): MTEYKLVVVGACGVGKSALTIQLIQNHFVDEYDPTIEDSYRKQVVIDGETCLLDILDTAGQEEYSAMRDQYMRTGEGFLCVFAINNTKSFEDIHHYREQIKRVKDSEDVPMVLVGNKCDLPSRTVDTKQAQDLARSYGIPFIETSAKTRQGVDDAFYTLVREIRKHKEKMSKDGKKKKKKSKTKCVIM
Chain of KRAS G12C-BRAF complex (P62937 whole entry): as the sequence (P62937 whole entry, looked up) above

Structure (SMILES): CO[C@@H](C)c1ncc(N2CCN(C)CC2)cc1-c1c2c3cc(cc4c3n1CCC4)-c1csc(n1)C[C@H](NC(=O)[C@H]1[C@H](C)[C@@H]1C)C(=O)N1CCC[C@H](N1)C(=O)OCC(C)(C)C2 (atropisomer, axis not shown; (M)) [Example 24, (1r,2R,3S)-N-[(7S,13S)-(20M)-20-[2-[(1S)-1-methoxyethyl]-5-(4-methylpiperazin-1-yl)-3-pyridyl]-17,17-dimethyl-8,14-dioxo-15-oxa-4-thia-9,21,30,31-tetrazahexacyclo[23.3.1.1^2,5.1^9,13.0^19,27.0^21,26]hentriaconta-1 (28),2,5 (31), 19,25 (29),26-hexaen-7-yl]-2,3-dimethyl-cyclopropanecarboxamide]
- IC50 (KRAS G12C-BRAF complex): 9.7 nM
- MAPK activation (DUSP6) in the brain (DUSP6): significantly decreased
- Selectivity Index (IC50 ratio) WT HRAS/KRAS G12V (WT HRAS-BRAF complex): 5.4
- IC50 [1]: 0.95 nM
- IC50 (WT NRAS-BRAF complex): 35 nM

Structure (SMILES): CCn1c(-c2cc(N3CCN(C)CC3)cnc2[C@H](C)OC)c2c3cc(ccc31)-c1csc(n1)C[C@H](NC(=O)[C@H]1C[C@@H]1C)C(=O)N1CCC[C@H](N1)C(=O)OCC(C)(C)O2 [Example A122, reference compound]
- IC50 [1]: 1.9 nM
- IC50 (WT NRAS-BRAF complex): 10 nM

Source: patent publication US20240417410A1, “TRICYCLIC COMPOUNDS FOR THE TREATMENT OF CANCER” (Hoffmann-La Roche Inc., priority 2023, published 2024)
